Assay results: PubChem BioAssay AID330 (DTP/NCI, 2004)
Where “and” joins values, the source holds several entries; their conditions need not be identical. Identical values can stand only once. Inconclusive results and toxic doses are left out. How the source made its calls: active means survival T/C of 150% or more; inactive means T/C below 125% in these data. Peptide text beside a SMILES is read from it.

Test system: P388 leukemia ip, CD2F1 mice, survival T/C
Assay: NCI In Vivo Anticancer Drug Screen. Data for tumor model P388 Leukemia (intraperitoneal) in CD2F1 (CDF1) mice
Conditions: endpoint: median survival time, higher = longer survival
In short: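 Mice carrying the transplanted tumor received test compound or vehicle. Survival was recorded in each group, and the value is the treated-group measurement divided by that of the vehicle-treated control group.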

[1] = dose: 6.25 mg/kg/injection, schedule: Q01DX005 (ip), vehicle: Klucel (hydroxypropylcellulose) (HPC)
[2] = dose: 12.5 mg/kg/injection, schedule: Q01DX005 (ip), vehicle: Klucel (hydroxypropylcellulose) (HPC)
[3] = dose: 100.0 mg/kg/injection, schedule: Q01DX009 (ip), vehicle: saline
[4] = dose: 200.0 mg/kg/injection, schedule: Q01DX009 (ip), vehicle: saline
[5] = dose: 100.0 mg/kg/injection, schedule: Q04DX003 (ip), vehicle: Klucel (hydroxypropylcellulose) (HPC)
[6] = dose: 200.0 mg/kg/injection, schedule: Q04DX003 (ip), vehicle: Klucel (hydroxypropylcellulose) (HPC)
[7] = dose: 400.0 mg/kg/injection, schedule: Q04DX003 (ip), vehicle: Klucel (hydroxypropylcellulose) (HPC)
[8] = dose: 50.0 mg/kg/injection, schedule: Q01DX005 (ip), vehicle: saline with Tween-80
[9] = dose: 100.0 mg/kg/injection, schedule: Q01DX005 (ip), vehicle: saline with Tween-80
[10] = dose: 50.0 mg/kg/injection, schedule: Q01DX009 (ip), vehicle: saline with Tween-80
[11] = dose: 50.0 mg/kg/injection, schedule: Q01DX009 (ip), vehicle: saline

Measured: T/C

CN=C(c1ccc(NC(=O)c2cc(N)cc(C(=O)Nc3ccc(C(=NC)N(C)C)cc3)c2)cc1)N(C)C
inactive: [1] 104 % of control | [2] 104 % of control

CCOC(CNN)OCC
inactive: [3] 106 % of control | [4] 91 % of control

C=C1C(=O)OC2C1C(O)C(OC(=O)/C(C)=C/C)C(C)C1C(=O)C=C(C)C21 (stereo unspecified)
inactive: [1] 107 % of control | [2] 114 % of control | dose: 25.0 mg/kg/injection, schedule: Q01DX005 (ip), vehicle: Klucel (hydroxypropylcellulose) (HPC) 115 % of control

CCN(CC)CCN1C(=O)c2cccc3cc(OC)cc(c23)C1=O
inactive: dose: 25.0 mg/kg/injection, schedule: Q01DX005 (ip), vehicle: saline 104 % of control | dose: 50.0 mg/kg/injection, schedule: Q01DX005 (ip), vehicle: saline 100 % of control | dose: 100.0 mg/kg/injection, schedule: Q01DX005 (ip), vehicle: saline 107 % of control

CC1=C(CO)C(=O)OC(C(C)C2CCC3C4CC5OC56C(O)C(N5CC5(C)C)CC(=O)C6(C)C4CCC23C)C1 (stereo unspecified)
inactive: dose: 8.75 mg/kg/injection, schedule: Q01DX005 (ip), vehicle: Klucel (hydroxypropylcellulose) (HPC) 108 % of control | dose: 17.5 mg/kg/injection, schedule: Q01DX005 (ip), vehicle: Klucel (hydroxypropylcellulose) (HPC) 99 % of control | dose: 35.0 mg/kg/injection, schedule: Q01DX005 (ip), vehicle: Klucel (hydroxypropylcellulose) (HPC) 99 % of control | dose: 70.0 mg/kg/injection, schedule: Q01DX005 (ip), vehicle: Klucel (hydroxypropylcellulose) (HPC) 108 % of control | dose: 140.0 mg/kg/injection, schedule: Q01DX005 (ip), vehicle: Klucel (hydroxypropylcellulose) (HPC) 105 % of control

CN(C)c1ccc(C(=O)C(=O)c2ccccc2)cc1
inactive: [5] 106 % of control | [6] 99 % of control | [7] 100 % of control

COC(=O)C(Cc1ccccc1)NC(=O)C(CC(C)C)NC(=O)C(CC(C)C)NC(=O)C(N)CC(C)C (stereo unspecified) (H-LLLF-OMe; configuration not given here)
inactive: [8] 98 % of control | [9] 104 % of control

CCOCCOCCOC(C)OC(C)Cc1ccc2c(c1)OCO2 (stereo unspecified)
inactive: [8] 106 % of control | [9] 95 % of control | dose: 200.0 mg/kg/injection, schedule: Q01DX005 (ip), vehicle: saline with Tween-80 112 % of control

O=C(O)COC(=O)c1ccc([N+](=O)[O-])cc1
inactive: [5] 99 % of control | [6] 108 % of control | [7] 100 % of control

Cc1ccccc1CC1c2[nH]c3ccccc3c2CCN1C (stereo unspecified)
inactive: dose: 60.0 mg/kg/injection, schedule: Q01DX005 (ip), vehicle: saline with Tween-80 109 % of control | dose: 120.0 mg/kg/injection, schedule: Q01DX005 (ip), vehicle: saline with Tween-80 109 % of control

NS(=O)(=O)c1cc2c(cc1Cl)NC=NS2(=O)=O
inactive: dose: 18.75 mg/kg/injection, schedule: Q01DX009 (ip), vehicle: Klucel (hydroxypropylcellulose) (HPC) 100 % of control and 103 % of control | dose: 37.5 mg/kg/injection, schedule: Q01DX009 (ip), vehicle: Klucel (hydroxypropylcellulose) (HPC) 104 % of control and 91 % of control | dose: 75.0 mg/kg/injection, schedule: Q01DX009 (ip), vehicle: Klucel (hydroxypropylcellulose) (HPC) 104 % of control and 89 % of control | dose: 150.0 mg/kg/injection, schedule: Q01DX009 (ip), vehicle: Klucel (hydroxypropylcellulose) (HPC) 104 % of control and 90 % of control | dose: 225.0 mg/kg/injection, schedule: Q01DX009 (ip), vehicle: Klucel (hydroxypropylcellulose) (HPC) 99 % of control and 100 % of control

NC(Cc1ccccc1[N+](=O)[O-])C(=O)O (stereo unspecified)
inactive: [10] 92 % of control | dose: 100.0 mg/kg/injection, schedule: Q01DX009 (ip), vehicle: saline with Tween-80 93 % of control | dose: 200.0 mg/kg/injection, schedule: Q01DX009 (ip), vehicle: saline with Tween-80 91 % of control

O=C(CSC(SCC(=O)Nc1ccccc1)c1ccccc1)Nc1ccccc1
inactive: dose: 60.0 mg/kg/injection, schedule: Q01DX005 (ip), vehicle: Klucel (hydroxypropylcellulose) (HPC) 101 % of control | dose: 120.0 mg/kg/injection, schedule: Q01DX005 (ip), vehicle: Klucel (hydroxypropylcellulose) (HPC) 86 % of control

O=C(O)CN(CCN1CC(=O)OC(=O)C1)CCN1CC(=O)OC(=O)C1
inactive: dose: 60.0 mg/kg/injection, schedule: Q01DX005 (ip), vehicle: saline 102 % of control | dose: 120.0 mg/kg/injection, schedule: Q01DX005 (ip), vehicle: saline 97 % of control

O=S(=O)(/N=C1\c2ccccc2/C(=N\S(=O)(=O)c2ccccc2)C2C3C=CC(C3)C12)c1ccccc1 (stereo unspecified)
inactive: dose: 25.0 mg/kg/injection, schedule: Q01DX001 (ip), vehicle: saline with Tween-80 115 % of control | dose: 50.0 mg/kg/injection, schedule: Q01DX001 (ip), vehicle: saline with Tween-80 100 % of control | dose: 100.0 mg/kg/injection, schedule: Q01DX001 (ip), vehicle: saline with Tween-80 90 % of control

CN=C(N)N/N=C(\c1ccccc1)c1ccc(I)cc1
inactive: dose: 25.0 mg/kg/injection, schedule: Q04DX002 (ip), vehicle: saline with Tween-80 104 % of control | dose: 50.0 mg/kg/injection, schedule: Q04DX002 (ip), vehicle: saline with Tween-80 107 % of control | dose: 100.0 mg/kg/injection, schedule: Q04DX002 (ip), vehicle: saline with Tween-80 107 % of control

FC(F)(F)C1(C(F)(F)F)[O][Sb]([c]2ccc(Cl)cc2)([c]2ccc(Cl)cc2)([c]2ccc(Cl)cc2)[O]1
inactive: dose: 50.0 mg/kg/injection, schedule: Q01DX009 (ip), vehicle: Klucel (hydroxypropylcellulose) (HPC) 103 % of control | dose: 100.0 mg/kg/injection, schedule: Q01DX009 (ip), vehicle: Klucel (hydroxypropylcellulose) (HPC) 88 % of control

CSC(=S)c1c(C)cccc1C
inactive: dose: 100.0 mg/kg/injection, schedule: Q04DX003 (ip), vehicle: saline with Tween-80 110 % of control | dose: 200.0 mg/kg/injection, schedule: Q04DX003 (ip), vehicle: saline with Tween-80 100 % of control | dose: 400.0 mg/kg/injection, schedule: Q04DX003 (ip), vehicle: saline with Tween-80 113 % of control

O=C(OC1CCC2(CC1)N=NC1(CCC(OC(=O)c3ccccc3)CC1)S2)c1ccccc1 (stereo unspecified)
inactive: [11] 98 % of control | [3] 97 % of control | [4] 101 % of control

COc1ccccc1N1C(=O)CSC1=Nc1ccccc1
inactive: [11] 98 % of control | [3] 96 % of control | [4] 100 % of control

C=C1C(=O)C23CC1CCC2C12COC(OC(=O)CCCCCCCCCCCCCCC)C1C(C)(C)C(O)CC2OC3=O (stereo unspecified)
inactive: dose: 7.5 mg/kg/injection, schedule: Q01DX009 (ip), vehicle: saline with Tween-80 96 % of control | dose: 15.0 mg/kg/injection, schedule: Q01DX009 (ip), vehicle: saline with Tween-80 99 % of control | dose: 30.0 mg/kg/injection, schedule: Q01DX009 (ip), vehicle: saline with Tween-80 97 % of control | dose: 60.0 mg/kg/injection, schedule: Q01DX009 (ip), vehicle: saline with Tween-80 100 % of control

Cc1ccc(S(=O)(=O)C(=S)Sc2ccccc2)cc1
inactive: dose: 3.12 mg/kg/injection, schedule: Q01DX009 (ip), vehicle: saline with Tween-80 104 % of control | dose: 6.25 mg/kg/injection, schedule: Q01DX009 (ip), vehicle: saline with Tween-80 105 % of control | dose: 12.5 mg/kg/injection, schedule: Q01DX009 (ip), vehicle: alcohol 104 % of control | dose: 12.5 mg/kg/injection, schedule: Q01DX009 (ip), vehicle: saline with Tween-80 109 % of control | dose: 25.0 mg/kg/injection, schedule: Q01DX009 (ip), vehicle: alcohol 107 % of control | dose: 50.0 mg/kg/injection, schedule: Q01DX009 (ip), vehicle: alcohol 107 % of control | [10] 123 % of control

Cc1cc2nnnn2c2ccccc12
inactive: [11] 96 % of control | [3] 99 % of control | [4] 95 % of control
